Data reported in a melting point compilation (Tetko et al.; mined from patent text by program, amines drawn as free bases though some values may be those of a salt).

Structure (SMILES)	melting point [°C]
CCCc1nc2c(N)nc3ccccc3c2n1CCCCNS(=O)(=O)c1ccccc1	159 to 161
CCCCCCCCCCCCc1ccccc1C(Sc1nc(C)c(C(=O)O)s1)C(=O)O (stereo unspecified)	88 to 91
CC(C)(C)OC(=O)N1CCC(c2nc3cc(-c4ccc(C#N)c(F)c4)ccc3o2)CC1	138 to 142
CCc1cc(C(=O)O)ccc1C(N)C(=O)O (stereo unspecified)	189 to 193
Cc1ccc(N2CCN(Cc3n[nH]c4ccccc34)CC2)cc1	176 to 177
CCCCCCCCCCOc1cc2oc3ccc(C(=O)O)cc3c(=O)c2cc1CCC(=O)O	> 210
COC(=O)c1ccc(N2CCN(Cc3ccccc3)CC2)cc1	105 to 107
CN1CCC(c2ccc(N(C)C)cc2)(C(C)(C)O)CC1	142 to 143
O=C(O)C1CCc2ccc(O)cc2C1 (stereo unspecified)	170 to 171
Cc1c(C)c(Br)c2c(c1C)C(=O)C(C)(C)O2	145 to 146
CCOc1cc2cc(C(=O)OC)c(C(=O)OC)c(-c3ccnc(Cl)c3)c2cc1OC	205 to 208
CCCn1c(=O)n2c(C)nnc2c2[nH]cnc21	298 to 299
CC(C)(C)C(=O)c1ccc(CC(Cc2ccc(C(=O)C(C)(C)C)cc2)C(=O)O)cc1	107 to 109
CCCCOc1c(CNC(=O)OC(C)(C)C)n(CC(C)C)c(=O)c2ccc(C#N)cc12	126 to 127
CCOC(=O)C1=C(C)NC(C=NN)=C(C(=O)OCC)C1c1ccccc1Cl (stereo unspecified)	107 to 110
CCCCCCCCCCCCc1nnn(C(C)(C)C(=O)O)n1	68 to 71
COC(=O)[C@H](Cc1cccc(Br)c1)NC(=O)OC(C)(C)C	60 to 61
CCN(C)c1ccc(Cn2nnc(-c3ccc(OC(=O)C(C)(C)C)cc3)n2)cc1	122 to 125
C=CCNc1ccc(N(CC(O)CO)CC(O)CO)cc1[N+](=O)[O-] (stereo unspecified)	154 to 158
CC(=O)Nc1cc(CCl)c(I)cn1	173 to 174
CC(C)(C)OC(=O)NC1(CCC(=O)O)CC=CO1 (stereo unspecified)	99 to 101
CC(=O)NC[C@H]1CN(c2ccc(N3CCC(n4ccnc4)CC3)c(F)c2)C(=O)O1	160 to 162
O=C(OC1CCCCCCC1)n1c(-c2cscn2)nc2ccccc21	85 to 88

Structure (SMILES)	melting point [°C]
O=C1C(O)OC=CN1Cc1ccccc1 (stereo unspecified)	134
CCOc1ccc(OCC(=O)O)c2c1C(=O)N(CSc1nnnn1-c1ccccc1)S2(=O)=O	187 to 189
C#CC1(O)CCC2C3CCC4=CC(=O)C=CC4(C)C3CCC21C (stereo unspecified)	218 to 219
COc1cc2ncc(C#N)c(Nc3ccc(O)cc3C)c2cc1OC	> 250
CC(C)(C)OC(=O)NC(Cc1ccccc1)C(O)CNCC(O)C(Cc1ccccc1)NC(=O)C(O)(CO)C(C)(C)C (stereo unspecified)	84 to 86
N#Cc1nn(-c2c(Cl)cc(C(F)(F)F)cc2Cl)cc1C(=O)C(F)(F)C(F)(F)F	120
CCOC(=O)c1cc2cc(OCCN(C)C)ccc2[nH]1	110
CCn1ccc2c(ccc3[nH]cc(CCN)c32)c1=O	224 to 227
COc1ccc(N(C(=O)CN2C(=O)C(Cc3nn(Cc4ccccc4)c4ccccc34)(OC)C(=O)Nc3ccccc32)C(C)C)cc1 (stereo unspecified)	202 to 204
OCc1ncc(-c2ccc(Cl)cc2)o1	100 to 104
CC1=Nc2ccc(CO)cc2C(=O)C1	249 to 252
CCOC(=O)CN(CC1CC2c3cccc4[nH]cc(c34)CC2N(C)C1)C(=O)NC(C)C (stereo unspecified)	118 to 120
O=C1c2cccc([N+](=O)[O-])c2C2CC(O)CCN12 (stereo unspecified)	> 260
Cc1nc(C)c(CCl)cc1CCl	108 to 109
CC(=O)CC(=O)N=C1SCCN1C	43 to 45
O=c1[nH]c(N[N+](=O)[O-])ncc1Cc1cccnc1	214 to 216
N=C(N)c1cc2cc(F)c(F)cc2o1	178
CCOC(=O)c1cnc2n(c1=O)-c1ccccc1N(C=O)C2	172 to 174
O=c1[nH]c2cc(Cl)ccc2c(O)c1-c1ccc(I)cc1	> 350
CCCC(=O)C1=C(O)CC(c2c(C)c(C)c(C)c3ccoc23)CC1=O (stereo unspecified)	130
O=C1COCC(=O)NCCOCCOCCN1	147 to 148
N#Cc1ccc2nc(-c3ccc(Br)cc3)cn2c1	262 to 264
CCCc1cc(-c2csc(-c3ccc(OCC)c(OCC)c3)n2)cc(C(=O)O)c1O	179 to 180

Structure (SMILES)	melting point [°C]
CN1CC(CCN2CCN(c3ccccc3Cl)CC2)OC1=O (stereo unspecified)	79.5 to 81.5
CC1C(=O)N(c2ccc(Sc3ccccc3)cc2)C(=S)N1c1ccccc1 (stereo unspecified)	136 to 138
CCC1=C(O)C(C(C)=O)C(=O)OC1=O (stereo unspecified)	212
COc1cccc(OCCCCC(=O)O)c1C=O	99 to 101
CNC(=O)NS(=O)(=O)c1cc2c(cc1OC)OC(C)(C)C(NC(=O)c1cc(Cl)ccc1OC)C2 (stereo unspecified)	248
COc1ccc(-c2ccc(C(=O)O)cc2)cc1-c1ccc2c(c1)C(C)(C)CCC2(C)C	251 to 255
Cc1cc(=O)n(-c2cccc(Cl)c2)n1C	98 to 100
Cc1ccc(Nc2c(N3CCCC3)cc(C(=O)O)cc2S(N)(=O)=O)cc1	188 to 191
Cc1ccc(Cn2[nH]c(N)cc2=O)cc1Cl	130 to 131
CNC1(C)CN(c2nc3c(cc2F)c(=O)c(C(=O)O)cn3C2CC2)C1	283 to 286
O=Cc1csc(N2CCSCC2)n1	69 to 71
COc1ccc(Cl)cc1C(=O)NC1COc2cc(OC)c(S(=O)(=O)NC(=O)NC(C)C)cc2C1 (stereo unspecified)	181 to 183
C#Cc1ccc(C(=O)OCC)cn1	35
CCc1nc2c(c(C)c(C)n3nnnc23)n1CCOCCN1CCCS1(=O)=O	176 to 178
Oc1ccc(C2COc3cc4c(cc3C2)OCO4)cc1 (stereo unspecified)	139 to 140
COC(=NS(=O)(=O)c1nc(-c2ccccc2Cl)ns1)C(C)C	75 to 76
Oc1ncnc2c(-c3ccc(Br)cc3)cnn12	> 300
CCOC(=O)c1cc(-n2c(=O)cc(C)[nH]c2=O)ccc1Cl	220 to 223
O=C(O)CCCN1c2ccccc2Sc2ccc(Cl)cc21	142 to 144
CCC(=O)NC(C)(C)CSc1cc(C)c(Cl)cc1C	78 to 81
CCOC(=O)C(=O)C(C#N)c1ccc(Br)cc1 (stereo unspecified)	146
COc1nc(N)c(Cl)cc1C(=O)CCC1CCN(CC(O)C(C)(C)C)CC1 (stereo unspecified)	134

The remaining lines, values ahead:

melting point [°C]	Structure (SMILES)
288 to 290	O=C1NN(c2ccc(Cl)cc2)C(=O)C1=CNc1ccccc1
244 to 245	COc1ccc(C2CCC(=O)Nc3ccccc3C2=O)cc1 (stereo unspecified)
155 to 158	COc1ccc(-c2cc(C)nn2-c2ccc([N+](=O)[O-])cc2)cc1
170 to 171	CCCOc1nc2ccccc2c2c1CNC2=O
290	CC(C)c1ccc2c(c1)c(S(=O)(=O)c1ccccc1)c(CC(C)(C)C(=O)O)n2Cc1ccc(N)cc1
59 to 62	CCOC(=O)Cc1c2ccccc2n2c(-c3ccccc3)nccc12
192 to 193	CC(O)c1ccc(NS(C)(=O)=O)c(Nc2ccc(F)cc2F)c1 (stereo unspecified)
92 to 100	Cc1ccc(S(=O)(=O)Nc2ccccc2C(=O)C2CC2)cc1
45 to 47	COc1ccc(-c2cnc(NC(=S)Cc3ccccc3)c(Cc3ccccc3)n2)cc1
139 to 140	CN1C(=O)C(c2ccc(OC(F)F)cc2)(c2ccc(F)c(OCCC=C(F)F)c2)N=C1N (stereo unspecified)
116 to 118	c1cc(Oc2ccc3c(c2)CCN3)ccn1
98 to 100	FC(F)(F)c1ccc(-n2nc(N3CCN(CC4CC4)CC3)c3ccccc32)cc1
134 to 136	O=S(=O)(Nc1cc(I)c(O)c2ccccc12)c1cccs1
88 to 92	COc1cccc(C2C(CN(C)C)CC(=O)N2c2ccccc2)c1 (stereo unspecified)
90 to 95	O=C(Nc1cccc([N+](=O)[O-])c1)c1cccnc1Oc1cccc(C(F)(F)F)c1
84 to 88	COC(=O)C[C@@H](CI)O[Si](c1ccccc1)(c1ccccc1)C(C)(C)C
187 to 189	COCCOc1cc2c(cc1C#Cc1ccccc1)NC(=O)CC(c1cccc(-n3ccnc3)c1)=N2

melting point [°C]	Structure (SMILES)
139 to 142	COCC(Oc1ccc(-n2nnc3cc(C(F)(F)F)ccc32)cc1)C(=O)O (stereo unspecified)
227 to 228	Cc1ccc(-c2c(Cl)ncnc2NS(=O)(=O)c2ccc(C(C)(C)CO)cc2)cc1
213 to 214	NC(=O)CC(O)(c1ccc(Br)cc1)c1cccnc1 (stereo unspecified)
91	C=C(C)C(=O)OCCC#Cc1ccc2c(ccc3cc(OC(=O)C(=C)C)ccc32)c1
210	Oc1ccc2cc(-c3ccc(-c4ccccc4)[nH]3)ccc2c1
144	COC(=Cc1ccc(-c2cccc(N(C)C(=O)NCCc3ccccc3)c2)cc1)C(=O)O
173 to 175	CC(C)n1nc(-c2c(-c3ccccc3)oc(=O)n2C(C)C(=O)O)ccc1=O (stereo unspecified)
121 to 123	COc1ccc(C(=C/C=C/C(=O)Oc2ccc([N+](=O)[O-])cc2)c2ccc(OC)cc2)cc1
207 to 209	O=S(=O)(Nc1ncc(Br)nc1OCc1cnccn1)c1cccc(Cl)c1Cl
210 to 240	O=C(O)c1ccccc1-c1ccc(CNc2nc(Cl)nc3ccc(Cl)cc23)cc1
195 to 197	CN(c1cccc2cc(C(=O)NCC3(SCc4ccccc4)CCN(C(=O)OC(C)(C)C)CC3)[nH]c12)S(=O)(=O)c1cccs1
173 to 174	COC(=O)c1ccc(-c2nnc(-c3ccc(C(F)(F)F)cc3)o2)c([N+](=O)[O-])c1
302	O=C(NC(Cc1ccccc1)C(=O)O)c1ccc(-c2ccc(OCc3ccccc3)cc2)cc1 (stereo unspecified)
146 to 149	Cc1nc2ccccc2n1CCCNCC(O)COc1ccc(CC(N)=O)cc1 (stereo unspecified)
217 to 219	COc1ccc(C(N)=O)c(OC)c1-c1ccc(C[C@H](NC(=O)c2c(Cl)cc(NC(N)=O)cc2Cl)C(=O)O)cc1
208 to 209	COc1ccccc1Sc1c(O)cc(-c2ccccc2)oc1=O
